In patent publication US9833497B2, “Human originated EGF domain proteins and use of the same” (CHENGDU SOURCEBIO LIMITED-LIABILITY COMPANY, priority 2013, dated 2017):

Assays:
Assay type in all cases: cell-based
E. coli DH5α = test: Antibacterial activity: MIC and growth curve against E. coli DH5α in 96-well plate; settings: minimal inhibitory concentration against E. coli DH5α; 96-well plate, 5×10^5 CFU/mL, 37° C., judged after 8 h
Method in brief: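 Log-phase bacteria (OD600 ~0.5) resuspended in LB at 5×10^5 CFU/mL, exposed to recombinant protein at 50, 25, 12.5 μg/mL final in triplicate, 37 °C shaking at 175 rpm. OD600 read every 30 min; MIC is lowest concentration showing no growth.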

E. coli BL21 = test: MIC against Gram-negative bacteria: E. coli BL21; settings: for MIC E. coli BL21 / MIC (μg/mL) E. coli BL21: 5×10^5 CFU/mL; for MIC E. coli BL21: two-fold serial dilution
Method in brief: (§1)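 Growth inhibition by human EGF domain proteins was scored in LB liquid culture seeded at 5×10^5 CFU/mL. Protein was applied as a two-fold dilution series in triplicate, with shaking incubation at 37° C; MIC is the lowest concentration giving no growth.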

Pseudomonas aeruginosa = test: MIC against Gram-negative bacteria: Pseudomonas aeruginosa; settings: for MIC P. aeruginosa / MIC (μg/mL) P. aeruginosa: 5×10^5 CFU/mL; for MIC P. aeruginosa: two-fold serial dilution
Method in brief: as §1

Klebsiella pneumonia = test: MIC against Gram-negative bacteria: Klebsiella pneumonia; settings: for MIC K. pneumonia / MIC (μg/mL) K. pneumonia: 5×10^5 CFU/mL; for MIC K. pneumonia: two-fold serial dilution
Method in brief: as §1

Enterobacter cloacae = test: MIC against Gram-negative bacteria: Enterobacter cloacae; settings: for MIC E. cloacae / MIC (μg/mL) E. cloacae: 5×10^5 CFU/mL; for MIC E. cloacae: two-fold serial dilution
Method in brief: as §1

Aeromonas hydrophila = test: MIC against Gram-negative bacteria: Aeromonas hydrophila; settings: for MIC A. hydrophila / MIC (μg/mL) A. hydrophila: 5×10^5 CFU/mL; for MIC A. hydrophila: two-fold serial dilution
Method in brief: as §1

Citrobacter diversus = test: MIC against Gram-negative bacteria: Citrobacter diversus; settings: for MIC C. diversus / MIC (μg/mL) C. diversus: 5×10^5 CFU/mL; for MIC C. diversus: two-fold serial dilution
Method in brief: as §1

Moraxella catarrhalis = test: MIC against Gram-negative bacteria: Moraxella catarrhalis; settings: for MIC M. catarrhalis / MIC (μg/mL) M. catarrhalis: 5×10^5 CFU/mL; for MIC M. catarrhalis: two-fold serial dilution
Method in brief: as §1

Proteus mirabilis = test: MIC against Gram-negative bacteria: Proteus mirabilis; settings: for MIC P. mirabilis / MIC (μg/mL) P. mirabilis: 5×10^5 CFU/mL; for MIC P. mirabilis: two-fold serial dilution
Method in brief: as §1

Proteus vulgaris = test: MIC against Gram-negative bacteria: Proteus vulgaris; settings: for MIC P. vulgaris / MIC (μg/mL) P. vulgaris: 5×10^5 CFU/mL; for MIC P. vulgaris: two-fold serial dilution
Method in brief: as §1

Serratia marcescens = test: MIC against Gram-negative bacteria: Serratia marcescens; settings: for MIC S. marcescens / MIC (μg/mL) S. marcescens: 5×10^5 CFU/mL; for MIC S. marcescens: two-fold serial dilution
Method in brief: as §1

[1] = E. coli BL21, 10 h cultivation at 37° C.
[2] = P. aeruginosa, 10 h cultivation at 37° C.
[3] = K. pneumonia, 10 h cultivation at 37° C.
[4] = E. cloacae, 10 h cultivation at 37° C.
[5] = A. hydrophila, 10 h cultivation at 37° C.
[6] = C. diversus, 10 h cultivation at 37° C.
[7] = M. catarrhalis, 10 h cultivation at 37° C.
[8] = P. mirabilis, 10 h cultivation at 37° C.
[9] = P. vulgaris, 10 h cultivation at 37° C.
[10] = S. marcescens, 10 h cultivation at 37° C.

| Substance | MIC (E. coli DH5α) [µg/mL] | MIC E. coli BL21 (E. coli BL21; 10 h cultivation at 37° C.) [µg/mL] | MIC P. aeruginosa (Pseudomonas aeruginosa; 10 h cultivation at 37° C.) [µg/mL] | MIC K. pneumonia (Klebsiella pneumonia; 10 h cultivation at 37° C.) [µg/mL] | MIC E. cloacae (Enterobacter cloacae; 10 h cultivation at 37° C.) [µg/mL] | MIC A. hydrophila (Aeromonas hydrophila; 10 h cultivation at 37° C.) [µg/mL] | MIC C. diversus (Citrobacter diversus; 10 h cultivation at 37° C.) [µg/mL] | MIC M. catarrhalis (Moraxella catarrhalis; 10 h cultivation at 37° C.) [µg/mL] | MIC P. mirabilis (Proteus mirabilis; 10 h cultivation at 37° C.) [µg/mL] | MIC P. vulgaris (Proteus vulgaris; 10 h cultivation at 37° C.) [µg/mL] | MIC S. marcescens (Serratia marcescens; 10 h cultivation at 37° C.) [µg/mL] | also measured |
| --- | --- | --- | --- | --- | --- | --- | --- | --- | --- | --- | --- | --- |
| PRT1098 (DIDNCQSHQCANGATCISHTNGYSCLCFGNFTGKFCR; listed as Homo sapiens) | 12.5 | 12.5 | 12.5 | 12.5 | 12.5 | 25 | 12.5 | 25 | 12.5 | 25 | 50 |  |
| PRT991 (RGLLCGSFPEPCANGGTCLSLSLGQGTCQCAPGFLGETCQ; listed as Homo sapiens) | 50 |  |  |  |  |  |  |  |  |  |  | MIC (E. coli BL21; [1]): 25 µg/mL; MIC (Pseudomonas aeruginosa; [2]): 12.5 µg/mL; MIC (Klebsiella pneumonia; [3]): 25 µg/mL; MIC (Enterobacter cloacae; [4]): 50 µg/mL; MIC (Aeromonas hydrophila; [5]): 12.5 µg/mL; MIC (Citrobacter diversus; [6]): 50 µg/mL; MIC (Moraxella catarrhalis; [7]): 12.5 µg/mL; MIC (Proteus mirabilis; [8]): 25 µg/mL; MIC (Proteus vulgaris; [9]): 12.5 µg/mL; MIC (Serratia marcescens; [10]): 25 µg/mL |
| PRT17 (AGHPCTRASGHPCLNGASCVPREAAYVCLCPGGFSGPHCE; listed as Homo sapiens) | 12.5 |  |  |  |  |  |  |  |  |  |  | MIC (μg/mL) E. coli BL21 (E. coli BL21; E. coli BL21, 96-well plate, 37° C., 10 h): 12.5 µg/mL; MIC (μg/mL) P. aeruginosa (Pseudomonas aeruginosa; Pseudomonas aeruginosa, 96-well plate, 37° C., 10 h): 12.5 µg/mL; MIC (μg/mL) K. pneumonia (Klebsiella pneumonia; Klebsiella pneumonia, 96-well plate, 37° C., 10 h): 25 µg/mL; MIC (μg/mL) E. cloacae (Enterobacter cloacae; Enterobacter cloacae, 96-well plate, 37° C., 10 h): 50 µg/mL; MIC (μg/mL) A. hydrophila (Aeromonas hydrophila; Aeromonas hydrophila, 96-well plate, 37° C., 10 h): 12.5 µg/mL; MIC (μg/mL) C. diversus (Citrobacter diversus; Citrobacter diversus, 96-well plate, 37° C., 10 h): 50 µg/mL; MIC (μg/mL) M. catarrhalis (Moraxella catarrhalis; Moraxella catarrhalis, 96-well plate, 37° C., 10 h): 25 µg/mL; MIC (μg/mL) P. mirabilis (Proteus mirabilis; Proteus mirabilis, 96-well plate, 37° C., 10 h): 12.5 µg/mL; MIC (μg/mL) P. vulgaris (Proteus vulgaris; Proteus vulgaris, 96-well plate, 37° C., 10 h): 50 µg/mL; MIC (μg/mL) S. marcescens (Serratia marcescens; Serratia marcescens, 96-well plate, 37° C., 10 h): 25 µg/mL |
| PRT1152 (HASPCSLMKCGNGGTCIESGTSVYCNCTTGWKGSFCT; listed as Homo sapiens) | 12.5 | 25 | 12.5 | 25 | 12.5 | 12.5 | 12.5 | 12.5 | 12.5 | 25 | 50 |  |
| PRT850 (CQCHGHVDPVKTPKICKPESGECINCLHNTTGFWCENCLEGYVHDLEGNCIK; listed as Homo sapiens) | 50 |  |  |  |  |  |  |  |  |  |  | MIC (μg/mL) E. coli BL21 (E. coli BL21; [1]): 25 µg/mL; MIC (μg/mL) P. aeruginosa (Pseudomonas aeruginosa; [2]): 12.5 µg/mL; MIC (μg/mL) K. pneumonia (Klebsiella pneumonia; [3]): 50 µg/mL; MIC (μg/mL) E. cloacae (Enterobacter cloacae; [4]): 12.5 µg/mL; MIC (μg/mL) A. hydrophila (Aeromonas hydrophila; [5]): 50 µg/mL; MIC (μg/mL) C. diversus (Citrobacter diversus; [6]): 12.5 µg/mL; MIC (μg/mL) M. catarrhalis (Moraxella catarrhalis; [7]): 50 µg/mL; MIC (μg/mL) P. mirabilis (Proteus mirabilis; [8]): 12.5 µg/mL; MIC (μg/mL) P. vulgaris (Proteus vulgaris; [9]): 25 µg/mL; MIC (μg/mL) S. marcescens (Serratia marcescens; [10]): 50 µg/mL |
| PRT1068 (DINECLRFGTCSQLCNNTKGGHLCSCARNFMKTHNTCK; listed as Homo sapiens) | 12.5 | 50 | 25 | 12.5 | 25 | 50 | 25 | 12.5 | 25 | 50 | 25 |  |
